From US20250304594A1, “METHYL (R)-2-(FLUOROMETHYL)-5-OXO-4-PHENYL-4,5,6,7-TETRAHYDRO-1H-CYCLOPENTA[B]PYRIDINE-3-CARBOXYLATE AND METHYL (R)-2-(FLUOROMETHYL)-5-OXO-4-PHENYL-1,4,5,7-TETRAHYDROFURO[3,4-B]PYRIDINE-3-CARBOXYLATE AS Cav1,2 ACTIVATORS” (Novartis AG, priority 2020, published 2025)

Biological target: T1, human CaV1.2 (Homo sapiens, UniProt Q13936)
T1 construct: expressed in transfected cells; host or cells: Flp-In 293 T-Rex (HEK293), monoclonal CaV1.2-HEK293(AUX) clone 2-19B; doxycycline-induced auxiliary subunits
T1 sequence (Q13936 1-2138 isoform Q13936-23): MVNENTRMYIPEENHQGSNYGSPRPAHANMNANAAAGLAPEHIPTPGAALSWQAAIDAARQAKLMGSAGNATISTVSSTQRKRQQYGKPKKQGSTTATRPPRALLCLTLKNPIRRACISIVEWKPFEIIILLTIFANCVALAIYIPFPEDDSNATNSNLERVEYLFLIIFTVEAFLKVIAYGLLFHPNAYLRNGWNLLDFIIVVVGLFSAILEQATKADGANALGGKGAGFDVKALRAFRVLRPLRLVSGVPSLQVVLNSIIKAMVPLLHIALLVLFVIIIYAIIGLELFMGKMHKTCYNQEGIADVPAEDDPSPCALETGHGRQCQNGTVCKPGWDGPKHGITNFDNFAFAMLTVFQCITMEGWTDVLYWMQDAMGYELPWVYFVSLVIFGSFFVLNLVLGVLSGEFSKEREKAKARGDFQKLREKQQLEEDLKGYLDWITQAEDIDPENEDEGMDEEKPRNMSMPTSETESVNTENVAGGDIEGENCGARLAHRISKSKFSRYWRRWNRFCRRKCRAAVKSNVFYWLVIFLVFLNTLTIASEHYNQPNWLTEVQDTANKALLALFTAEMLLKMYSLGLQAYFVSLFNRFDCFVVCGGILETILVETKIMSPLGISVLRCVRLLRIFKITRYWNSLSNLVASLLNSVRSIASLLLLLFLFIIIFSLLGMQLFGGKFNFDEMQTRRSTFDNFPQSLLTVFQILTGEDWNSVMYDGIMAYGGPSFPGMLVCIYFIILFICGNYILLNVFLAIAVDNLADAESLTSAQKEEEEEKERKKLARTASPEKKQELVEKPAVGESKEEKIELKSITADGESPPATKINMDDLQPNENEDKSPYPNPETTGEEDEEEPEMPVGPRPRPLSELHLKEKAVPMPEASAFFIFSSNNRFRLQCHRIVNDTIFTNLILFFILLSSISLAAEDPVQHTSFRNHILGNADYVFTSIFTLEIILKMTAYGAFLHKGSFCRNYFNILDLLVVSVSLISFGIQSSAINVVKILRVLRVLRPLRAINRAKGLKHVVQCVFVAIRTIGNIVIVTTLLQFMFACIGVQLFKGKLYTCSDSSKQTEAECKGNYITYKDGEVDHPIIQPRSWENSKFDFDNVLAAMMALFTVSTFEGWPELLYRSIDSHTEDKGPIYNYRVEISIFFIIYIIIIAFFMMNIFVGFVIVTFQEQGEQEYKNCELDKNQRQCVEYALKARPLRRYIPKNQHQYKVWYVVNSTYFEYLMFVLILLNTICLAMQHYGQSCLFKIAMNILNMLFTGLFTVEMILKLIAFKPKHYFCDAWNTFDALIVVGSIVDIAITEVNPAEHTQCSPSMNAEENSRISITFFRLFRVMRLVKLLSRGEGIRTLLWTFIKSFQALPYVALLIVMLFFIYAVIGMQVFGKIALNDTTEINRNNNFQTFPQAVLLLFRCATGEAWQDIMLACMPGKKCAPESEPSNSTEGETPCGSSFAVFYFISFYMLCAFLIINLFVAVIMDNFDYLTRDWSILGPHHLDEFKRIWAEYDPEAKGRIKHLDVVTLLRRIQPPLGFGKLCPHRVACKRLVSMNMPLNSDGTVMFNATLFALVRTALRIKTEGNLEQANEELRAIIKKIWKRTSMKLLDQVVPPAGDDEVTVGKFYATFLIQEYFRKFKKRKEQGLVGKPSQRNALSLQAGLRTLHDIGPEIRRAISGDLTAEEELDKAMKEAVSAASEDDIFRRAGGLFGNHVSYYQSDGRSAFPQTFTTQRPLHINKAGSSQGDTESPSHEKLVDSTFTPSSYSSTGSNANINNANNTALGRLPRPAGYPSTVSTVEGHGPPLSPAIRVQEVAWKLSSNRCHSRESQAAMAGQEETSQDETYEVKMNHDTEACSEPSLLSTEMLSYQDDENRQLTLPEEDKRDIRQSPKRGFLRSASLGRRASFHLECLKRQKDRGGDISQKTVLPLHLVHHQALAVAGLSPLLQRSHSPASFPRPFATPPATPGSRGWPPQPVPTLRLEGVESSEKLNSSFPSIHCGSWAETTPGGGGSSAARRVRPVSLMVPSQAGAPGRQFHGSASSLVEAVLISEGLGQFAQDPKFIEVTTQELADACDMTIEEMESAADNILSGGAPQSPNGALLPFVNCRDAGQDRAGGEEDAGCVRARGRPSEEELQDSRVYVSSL
T1 sequence (Q9NY47 19-1001 partner limits assumed): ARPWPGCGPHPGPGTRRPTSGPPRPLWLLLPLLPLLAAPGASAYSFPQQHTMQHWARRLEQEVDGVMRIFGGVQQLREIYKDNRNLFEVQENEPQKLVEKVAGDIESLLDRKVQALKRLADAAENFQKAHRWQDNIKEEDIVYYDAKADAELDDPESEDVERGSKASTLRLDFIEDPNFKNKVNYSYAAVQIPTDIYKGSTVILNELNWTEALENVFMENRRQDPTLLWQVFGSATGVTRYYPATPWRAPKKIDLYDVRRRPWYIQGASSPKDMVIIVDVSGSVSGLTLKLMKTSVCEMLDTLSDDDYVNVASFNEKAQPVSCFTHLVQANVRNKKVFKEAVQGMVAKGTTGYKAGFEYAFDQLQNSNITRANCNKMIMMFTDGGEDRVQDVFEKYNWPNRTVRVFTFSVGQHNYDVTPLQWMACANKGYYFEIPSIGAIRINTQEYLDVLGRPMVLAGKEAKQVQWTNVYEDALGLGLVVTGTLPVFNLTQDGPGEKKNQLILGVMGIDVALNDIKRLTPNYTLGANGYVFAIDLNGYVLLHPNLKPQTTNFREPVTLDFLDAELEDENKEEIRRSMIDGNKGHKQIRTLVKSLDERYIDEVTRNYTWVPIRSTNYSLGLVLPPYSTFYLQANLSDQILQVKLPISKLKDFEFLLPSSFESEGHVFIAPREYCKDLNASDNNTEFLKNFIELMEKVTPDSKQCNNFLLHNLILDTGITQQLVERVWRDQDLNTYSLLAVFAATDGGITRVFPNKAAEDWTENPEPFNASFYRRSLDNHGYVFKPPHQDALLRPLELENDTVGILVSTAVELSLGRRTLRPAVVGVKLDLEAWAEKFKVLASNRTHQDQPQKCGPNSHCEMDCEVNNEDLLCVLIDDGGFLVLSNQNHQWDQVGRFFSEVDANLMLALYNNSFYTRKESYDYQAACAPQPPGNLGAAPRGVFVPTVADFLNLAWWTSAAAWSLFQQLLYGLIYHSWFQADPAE
T1 sequence (Q9NY47 1002-1150 partner limits assumed): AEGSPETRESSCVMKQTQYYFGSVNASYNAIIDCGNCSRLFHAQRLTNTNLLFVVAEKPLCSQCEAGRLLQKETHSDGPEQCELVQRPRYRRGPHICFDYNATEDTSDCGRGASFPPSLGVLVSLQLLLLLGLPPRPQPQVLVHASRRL
T1 sequence (Q08289 whole entry partner): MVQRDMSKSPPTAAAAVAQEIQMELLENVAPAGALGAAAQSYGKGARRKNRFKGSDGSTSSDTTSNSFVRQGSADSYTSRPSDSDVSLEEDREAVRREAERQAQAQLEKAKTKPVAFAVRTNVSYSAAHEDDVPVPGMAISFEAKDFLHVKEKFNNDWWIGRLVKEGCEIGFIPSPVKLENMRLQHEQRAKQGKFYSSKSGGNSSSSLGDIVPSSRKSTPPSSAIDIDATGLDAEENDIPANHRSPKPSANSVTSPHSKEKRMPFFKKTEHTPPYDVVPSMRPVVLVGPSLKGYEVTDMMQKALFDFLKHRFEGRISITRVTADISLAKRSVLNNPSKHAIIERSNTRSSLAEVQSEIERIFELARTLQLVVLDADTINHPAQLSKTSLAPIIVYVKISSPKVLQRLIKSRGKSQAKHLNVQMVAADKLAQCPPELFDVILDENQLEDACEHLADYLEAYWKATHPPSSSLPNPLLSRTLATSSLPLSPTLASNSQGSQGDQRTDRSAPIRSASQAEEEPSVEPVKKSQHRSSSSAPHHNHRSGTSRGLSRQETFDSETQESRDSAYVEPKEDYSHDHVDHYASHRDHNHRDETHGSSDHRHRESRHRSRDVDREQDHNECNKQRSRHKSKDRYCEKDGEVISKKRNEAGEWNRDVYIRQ
Test: QPatch channel biophysics assay (channel gating, V1/2 of activation, inactivation) in CaV1.2-HEK293(AUX) cells
Type: cell-based
Conditions: Table 9; shift of half-way channel activation voltage V1/2
From the text: The monoclonal CaV1.2-HEK293(AUX) cell line constitutively expresses human CaV1.2 alpha1C (α1C) subunit (CACNA1C) and has doxycycline-inducible expression of the alpha2delta (α2Δ2) auxiliary subunit (CACNA2D2) and beta2 (02) auxiliary subunit (CACNB2). To generate the cell line, expression vectors pcDNA5.0/FRT-TO-CACNA2D2-FCS-P2A-CACNB2 and pCMV6-entry-CACNA1C were established via gene synthesis and cloning. Here, pcDNA5.0/FRT-TO plasmid is from Invitrogen, pCMV6-entry is from Origene, FCS stands for Furin Cleavage Site, P2A is a peptide self-cleavage sequence derived from porcine teschovirus-1, and FRT is the Flippase recognition target site. Next, parental line Flp-In™ 293 T-Rex (Invitrogen) was transfected with pcDNA5.0/FRT-TO-CACNA2D2-FCS-P2A-CACNB2 and Flippase vector pOG44 (Invitrogen) to establish targeted integration of the CACNA2D2-FCS-P2A-CACNB2 expression cassette into the pre-engineered FRT site in Flp-In™ 293 T-Rex. This intermediate cell line was then transfected with pCMV6-entry-CACNA1C to establish stable CACNA1C expression. Clonal isolation was achieved under Neomycin selection. A cell clone (2-19B) with good voltage-dependent Barium current (see electrophysiology methods below) was selected for characterization of CaV1.2 activators.
24 hours prior an electrophysiology experiment, doxycycline (1 μg/ml) was added to the growth medium (Table 6), and 25 μM of verapamil was co-applied to prevent calcium influx triggered cell death. Cell confluency should reach 70%-80% right before the experiment. To harvest cells (from a T175 cm^2 flask as an example), growth media were removed completely, and the cells were rinsed with 10 mL of D-PBS. D-PBS was aspirated, and 10 mL of Detachin (Genlantis) was added and the plate was placed in a 37° C. incubator for 10 minutes. Detached cells were placed into a 15 mL conical tube and spun at 1000 rpm for 2 minutes. Supernatant was removed, and cells were re-suspended in QPatch complete media (Table 7) to desired cell density of 1.5-3 million cells per QPatch run. Each experimental run uses 1.5 mL of cells.
The cells suspension was taken to the Sophion QPatch platform that uses whole-cell voltage clamp to measure barium currents conducted through CaV1.2 on single-hole QPlates. Extracellular and intracellular patch clamp solutions are described in Tables 7 and 8, respectively. A dose-response assay protocol was used to determine the maximal fold change of peak inward current (Emax) and potency (EC50) of each compound. The protocol had eight liquid periods. The first liquid period was to stabilize current amplitude, which was monitored using repetitive 200-ms voltage pulses stepping from −80 mV to 0 mV. The second liquid period was to determine baseline current amplitude in the presence of vehicle control, using a single 20-ms voltage pulse stepping from −80 mV to 0 mV. The third through eighth liquid periods were used to ascertain a 6-dose response to compound treatments, also using single 20-ms voltage pulses stepping from −80 mV to 0 mV. The EC50 was generated using the following equation Iconcentration=Ibase+(Ifull−Ibase)*c^n/(XC50^n+c^n), where c is the concentration and n is the Hill coefficient constant. Ifull is the maximal current achievable, and Ibase is 0. A channel biophysics assay protocol was used to determine channel gating properties including current-voltage relationship (IV curves), half-way channel activation voltage (V1/2), rate of channel inactivation (tau), and amplitude of tail current. Among these, V1/2 was derived from fitting equation G(V)=Gvmin+(Gvmax−Gvmin)/(1+exp(−(V−V½)/Vslope)), where G stands for conductance, Gvmin equals 0, Gvmax is the maximal conductance, and Vslope is a slope factor. G(V) was pre-calculated from equation G(V)=I(V)/(V−0.06), for each experimentally applied depolarization potential (V) and the corresponding current amplitude (I(V)), and 0.06 in the equation was the experimentally determined reversal potential in volts. […]

Structure (SMILES)	Biophysics voltage shift (mV)
COC(=O)C1=C(CF)NC2=C(C(=O)OC2)[C@H]1c1cccc(F)c1[C@H]1CC1(F)F (single isomer, unassigned) [Example 1, methyl (R)-4-(2-((R or S)-2,2-difluorocyclopropyl)-3-fluorophenyl)-2-(fluoromethyl)-5-oxo-1,4,5,7-tetrahydrofuro[3,4-b]pyridine-3-carboxylate]	−5.9
COC(=O)C1=C(CF)NC2=C(C(=O)OC2)[C@H]1c1cccc(F)c1C1CC1 (single isomer, unassigned) [Example 2]	−4.5
COC(=O)C1=C(CF)NC2=C(C(=O)OC2)[C@H]1c1cc(F)cc(F)c1[C@H]1CC1(F)F (single isomer, unassigned) [Example 3, Methyl (R)-4-(2-((R or S)-2,2-difluorocyclopropyl)-3,5-difluorophenyl)-2-(fluoromethyl)-5-oxo-1,4,5,7-tetrahydrofuro[3,4-b]pyridine-3-carboxylate]	0.1
COC(=O)C1=C(CF)NC2=C(C(=O)OC2)[C@H]1c1cc(F)cc(F)c1[C@H]1CC1(F)F (single isomer, unassigned) [Example 4, Methyl (R)-4-(2-((R or S)-2,2-difluorocyclopropyl)-3,5-difluorophenyl)-2-(fluoromethyl)-5-oxo-1,4,5,7-tetrahydrofuro[3,4-b]pyridine-3-carboxylate]	−4.4
COC(=O)C1=C(CF)NC2=C(C(=O)OC2)[C@H]1c1cc(F)cc(F)c1[C@H](C)F (single isomer, unassigned) [Example 5, methyl (R)-4-(3,5-difluoro-2-((R or S)-1-fluoroethyl)phenyl)-2-(fluoromethyl)-5-oxo-1,4,5,7-tetrahydrofuro[3,4-b]pyridine-3-carboxylate]	−4.6
COC(=O)C1=C(CF)NC2=C(C(=O)OC2)[C@H]1c1cccc(F)c1[C@H](F)CF (single isomer, unassigned) [Example 6]	−6.3
COC(=O)C1=C(CF)NC2=C(C(=O)CC2)[C@H]1c1cccc(F)c1[C@@H](F)CF (single isomer, unassigned) [Example 7, methyl (R)-4-(2-((R or S)-1,2-difluoroethyl)-3-fluorophenyl)-2-(fluoromethyl)-5-oxo-4,5,6,7-tetrahydro-1H-cyclopenta[b]pyridine-3-carboxylate]	−6.3
COC(=O)C1=C(CF)NC2=C(C(=O)OC2)[C@H]1c1cccc(F)c1[C@@H](C)F (single isomer, unassigned) [Example 8]	−5.4
COC(=O)C1=C(CF)NC2=C(C(=O)OC2)[C@H]1c1ccccc1OC(F)F (single isomer, unassigned) [Example 9]	−4.5
COC(=O)C1=C(CF)NC2=C(C(=O)OC2)[C@H]1c1cc(F)cc(F)c1C(F)(F)F (single isomer, unassigned) [Example 10]	−2.3
COC(=O)C1=C(CF)NC2=C(C(=O)OC2)[C@H]1c1cccc(F)c1CC(F)F (single isomer, unassigned) [Example 11]	−5.0
COC(=O)C1=C(CF)NC2=C(C(=O)OC2)[C@H]1c1cc(F)cc(F)c1C1CC1 (single isomer, unassigned) [Example 13]	−0.7
COC(=O)C1=C(CF)NC2=C(C(=O)OC2)[C@H]1c1cccc(F)c1C(F)F (single isomer, unassigned) [Example 15]	−5.7
COC(=O)C1=C(CF)NC2=C(C(=O)OC2)[C@H]1c1cc(F)cc(F)c1[C@H](F)CF (single isomer, unassigned) [Example 16, methyl (R)-4-(2-((R or S)-1,2-difluoroethyl)-3,5-difluorophenyl)-2-(fluoromethyl)-5-oxo-1,4,5,7-tetrahydrofuro[3,4-b]pyridine-3-carboxylate]	−5.8
COC(=O)C1=C(CF)NC2=C(C(=O)OC2)[C@H]1c1cccc(F)c1C(F)(F)F (single isomer, unassigned) [Example 17]	−6.8
COC(=O)C1=C(CF)NC2=C(C(=O)OC2)[C@H]1c1cc(F)cc(F)c1C(F)F (single isomer, unassigned) [Example 18]	−5.2
COC(=O)C1=C(CF)NC2=C(C(=O)OC2)[C@H]1c1cc(F)ccc1C(F)(F)F (single isomer, unassigned) [Example 23]	−6.2
COC(=O)C1=C(CF)NC2=C(C(=O)CC2)[C@H]1c1cccc(F)c1C1CC1 (single isomer, unassigned) [Example 28]	−7.2
